Source: patent EP4624482A1, “PYRIMIDOPYRIMIDINONE COMPOUND AND PHARMACEUTICAL COMPOSITION COMPRISING SAME” (Axceso Biopharma Co., Ltd., priority 2022, dated 2024)

What was measured:
[1] = system: SIRT1; experiment: SIRT1 expression in mouse vascular cells; assay type: cell-based
[2] = system: Tau protein; experiment: Tau expression in mouse brain of AD-induced animal model, fluorescence microscopy; assay type: in vivo, mice; conditions: 1 mg/kg intraperitoneally once every 3 days for 2 weeks; brain sections at 1 week and 4 weeks after drug administration
Method: To determine the therapeutic effect on Alzheimer's Disease (AD), the effects on amyloid beta monomer (monomeric Aβ, mAβ) and Tau protein, which are biomarkers of AD, were analyzed in an AD-induced animal model.
APP/PS/Tau transgenic mice were used as an AD-induced animal model. The compound of formula (1a-1) was administered intraperitoneally once every 3 days at a concentration of 1 mg/kg to 12-week-old transgenic mice for 2 weeks, and the expression of mAβ and Tau proteins in the mouse brain was measured after 1 and 4 weeks. After anesthetizing the mouse, the cervical region was incised with a dissecting tool, and then the occipital region was incised to remove both sides of the skull. The brain was washed with phosphate buffered saline (PBS) and fixed with 4% paraformaldehyde (Sigma, St Louis, MO, USA) for 12 hours at 4°C. These were cut to a thickness of approximately 10 µm using a vibratome, and hippocampus and cortex sections were collected and placed in 24 wells. PBS was added to the wells containing the fixed tissue sections, and fluorescent nanoparticles (QD565, red fluorescence) conjugated with anti-amyloid antibodies and anti-Tau antibodies (Santa Cruz, USA) were added to each 2 µM, and reacted at 4°C for 12 hours. The expression of mAβ and Tau was confirmed by fluorescence microscopy.

[3] = system: TNF-α; experiment: Serum TNF-α after CLP treatment, ELISA; assay type: in vivo, mouse; conditions: treated at 6 and 16 hours after CLP, serum at 18 hours
Method: After CLP treatment, the inflammatory cytokines TNF-α and IL-6 were analyzed by ELISA.
Specifically, after treating the compound of formula (1a-1) at 6 and 16 hours after CLP treatment, mouse blood was collected at 18 hours and allowed to stand at room temperature for 1 hour, then centrifuged at 3000 rpm for 10 minutes to obtain serum to analyze the amount of TNF-α and IL-6.

[4] = system: dopamine transporter (DAT); experiment: Differentiation of pluripotent stem cells into dopaminergic neurons: DAT; assay type: cell-based; conditions: western blot of 5-week differentiation sample
Method: Pluripotent stem cells were seeded in AggreWell plates (stemcell) at 5,000 cells/microwell and cultured for 5 days in E6 medium (GIBCO) to induce embryonic body (EB) formation. For neural rosette formation, EBs were seeded into 35 mm dishes in groups of 30 and cultured for 10 days in N2bF medium. The 35 mm dishes were used after being coated with 15 µg/ml of poly-L-ornithine (sigma) and 1 µg/ml of fibronectin (sigma). The N2Bf medium composition was DMEM/F12 (GIBCO), N2 supplement (stemcell) 1×, 10% NEAA (GIBCO), 55 µM betaMercaptoethanol (GIBCO), bFGF (peprotech) 20 ng/ml. For the formation of spherical neural masses (SNMs), rosette masses were sliced and cultured in petri dishes with N2bF medium. SNMs were no larger than 500 µM in size and were sliced and cultured for 3 to 4 passages. After subculture of SNM, the clumps were broken into small pieces using a tungsten mesh (Nilaco) for the neural progenitor cell (NPC) culture step, and then attached to a PLO/FN-coated dish and cultured in N2bF medium. To differentiate NPCs into dopaminergic neurons, the medium was replaced with an ITS-B27 medium after 2 days of NPC culture. […]
The effect of the compound of formula (1a-1) on differentiation into neurons was evaluated by comparing the expression of tyrosine hydroxylase (TH) and dopamine transporter (DAT) depending on the presence or absence of treatment with the compound of formula (1a-1).

[5] = system: α-synuclein; experiment: α-synuclein expression in rotenone-treated differentiated SH-SY5Y dopaminergic neurons, western blot; assay type: cell-based, human; conditions: differentiated dopaminergic neurons treated with rotenone
Method: To analyze the effect on the expression of tyrosine hydroxylase (TH) and α-synuclein as neuron-specific proteins, western blot was performed.
SH-SY5Y cell line was treated with retinoic acid and 12-O-tetradecanoylphorbol-13-acetate (TPA) to induce differentiation into TH-secreting neurons for 6 days.
Differentiated dopaminergic neurons were lysed in PRO-PREP (Intronbio), a cell lysis solution containing protease inhibitor cocktail (Gendepot), and electrophoresed in 10% SDS polyacrylamide gels at 20 µg/well. Transfer was performed using PVDF (Merck millipore) as a membrane, and tyrosine hydroxylase antibody, α-synuclein antibody (Cell signaling), and β-actin antibody (Santa Cruz) were used for reaction for more than 2 hours. Protein expression was detected by staining with ECL substrate (Biorad) for development and graphed using the image J program.

[6] = system: SH-SY5Y cell lines; experiment: Proliferation of SH-SY5Y cells (Parkinson's disease cell model), EZ-cytox; assay type: cell-based, human; conditions: 5 days
Method: A medium containing DMEM/F12 (Hyclone), 10% FBS (Hyclone), and 1% penicillin-streptomycin (Hyclone) was used, and the medium was replaced every two days after seeding on a T75 plate. Subculture was performed when the cell density was 80-90%.
Then, to determine the neuronal proliferation effect, the subcultured SH-SY5Y cells were seeded in 96 wells at 5 × 10^3 cells/well. After 1 day, the medium was replaced with a 5% FBS ratio, and the cells were treated with the compound of formula (1a-1) at concentrations serially diluted 2-fold from 500 nM to 15.6 nM and cultured for 5 days. The medium was replaced with 10% FBS containing the drug every other day. The culture medium with 10% FBS was used as a control. After 5 days, the amount of living cells was measured at 450 nm absorbance using EZ-cytox (DoGen) to compare the cell viability.

CCCCCCCCCCCCCC[C@H]1OP(=O)(O)O[C@H]1[C@@H](N)CO.Cl [formula (1a-1), (4S,5R)-4-((S)-1-amino-2-hydroxyethyl)-2-hydroxy-5-tetradecyl-1,3,2-dioxaphosphoran-2-oxide hydrochloride]
concentration of maximum expression (SIRT1) [1]: 100 ng/mL | red fluorescence for Tau [2]: negligible | amount of inflammatory cytokine TNF-α [3]: significantly decreased | DAT glycosylation [4]: increased | expression of α-synuclein increased by rotenone [5]: decreased | proliferation of nerve cells ([6]; 15.6 nM to 500 nM): increases with increasing concentrations | concentration of maximum proliferative potency [6]: ~0.1 µM
